Reference: patent US20240270762A1, “PENICILLIN-BINDING PROTEIN INHIBITORS” (priority 2021, published 2024)
Values after ≈ are worked out from the molar mass of the structure shown. Where two headings read alike, the source gives them in different places.

How the values were obtained:
P. aeruginosa CDC-0095 = assay: microbe, parasite or virus in culture; assay type: cell-based; settings: Pseudomonas aeruginosa, CDC0095, read-out: Minimum inhibitory concentration, P. aeruginosa CDC-0095
A. baumannii CDC-0045 = assay: microbe, parasite or virus in culture; assay type: cell-based; settings: Acinetobacter baumannii
[1] = target: T1, PBP3 from Acinetobacter baumannii (ATCC 19606) (Acinetobacter baumannii, UniProt A0ABX6CK25); assay: Bocillin-FL fluorescence polarization competition binding, A. baumannii PBP3; settings: fluorescence polarization competition binding assay using Bocillin-FL; read-out: A. baumannii PBP3 Potency
T1 sequence (A0ABX6CK25 64-610): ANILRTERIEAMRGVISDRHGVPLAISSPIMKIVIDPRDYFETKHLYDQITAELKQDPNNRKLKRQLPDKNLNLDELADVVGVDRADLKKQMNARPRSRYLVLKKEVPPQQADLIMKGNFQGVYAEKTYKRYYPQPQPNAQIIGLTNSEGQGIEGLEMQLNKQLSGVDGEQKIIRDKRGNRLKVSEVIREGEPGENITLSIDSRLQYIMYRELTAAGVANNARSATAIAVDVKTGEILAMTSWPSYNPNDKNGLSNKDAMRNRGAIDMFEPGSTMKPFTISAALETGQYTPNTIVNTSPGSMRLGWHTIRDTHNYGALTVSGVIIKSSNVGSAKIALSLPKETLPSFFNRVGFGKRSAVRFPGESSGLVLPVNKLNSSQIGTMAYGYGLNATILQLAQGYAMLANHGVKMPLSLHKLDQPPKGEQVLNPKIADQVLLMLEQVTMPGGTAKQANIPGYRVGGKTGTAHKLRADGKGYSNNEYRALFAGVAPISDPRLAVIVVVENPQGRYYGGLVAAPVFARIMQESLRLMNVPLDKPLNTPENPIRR
Summary of the method: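 Purified PBP was preincubated with inhibitor (E. coli PBP3 1.5 μM, 30 min; P. aeruginosa PBP3 0.75 μM, A. baumannii PBP3 0.2 μM and PBP1a 1 μM, 15 min), then Bocillin-FL (0.1 μM; 0.05 μM for PBP1a) added and FP read up to 60 min. EC50 = 50% loss of bound probe.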

A. baumannii ATCC 19606 = assay: microbe, parasite or virus in culture; assay type: cell-based; settings: Acinetobacter baumannii
P. aeruginosa ATCC 27853 = assay: microbe, parasite or virus in culture; assay type: cell-based; settings: Pseudomonas aeruginosa, ATCC27853, read-out: Minimum inhibitory concentration, P. aeruginosa ATCC 27853
A. baumannii PBP2 = A. baumannii PBP2 (Acinetobacter baumannii, UniProt D0C8Z9); assay: Bocillin-FL competition binding via gel filtration, A. baumannii PBP2
Summary of the method: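 Competitive equilibrium binding; reporter Bocillin-FL. PBP + inhibitor (titration) pre-incubated → Bocillin-FL, 15 min → gel filtration → fluorescence. EC50 from Hill fit of fraction bound vs [inhibitor].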

P. aeruginosa CDC-0110 = assay: microbe, parasite or virus in culture; assay type: cell-based; settings: Pseudomonas aeruginosa, CDC0110, read-out: Minimum inhibitory concentration, P. aeruginosa CDC-0110
[2] = tested on: B. thailandensis ATCC 700388; assay: microbe, parasite or virus in culture; assay type: cell-based; settings: Burkholderia thailandensis, ATCC700388, read-out: Minimum inhibitory concentration (MIC), B. thailandensis ATCC 700388
[3] = CDC0045, read-out: Minimum inhibitory concentration (MIC), A. baumannii CDC-0045
[4] = ATCC19606, read-out: Minimum inhibitory concentration (MIC), A. baumannii ATCC 19606

A. baumannii PBP2, sequence (D0C8Z9 whole entry): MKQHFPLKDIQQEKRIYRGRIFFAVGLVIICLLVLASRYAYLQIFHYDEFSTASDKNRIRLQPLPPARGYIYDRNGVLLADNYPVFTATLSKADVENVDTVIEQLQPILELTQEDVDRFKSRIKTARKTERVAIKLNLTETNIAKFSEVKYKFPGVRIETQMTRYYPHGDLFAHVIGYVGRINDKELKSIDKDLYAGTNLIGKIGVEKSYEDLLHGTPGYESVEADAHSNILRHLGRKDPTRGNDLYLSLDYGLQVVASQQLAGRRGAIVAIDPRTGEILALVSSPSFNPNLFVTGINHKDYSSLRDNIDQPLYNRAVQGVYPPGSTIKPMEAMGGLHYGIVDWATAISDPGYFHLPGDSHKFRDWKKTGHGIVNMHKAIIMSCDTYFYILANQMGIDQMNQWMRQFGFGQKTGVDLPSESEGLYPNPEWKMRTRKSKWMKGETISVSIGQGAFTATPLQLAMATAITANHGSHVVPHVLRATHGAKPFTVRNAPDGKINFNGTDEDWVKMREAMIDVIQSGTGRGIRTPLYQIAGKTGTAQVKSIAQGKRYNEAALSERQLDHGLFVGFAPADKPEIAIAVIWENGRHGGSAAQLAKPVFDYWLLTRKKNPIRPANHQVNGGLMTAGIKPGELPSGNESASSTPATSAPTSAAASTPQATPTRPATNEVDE

SMILES | MIC (P. aeruginosa CDC-0095) [µg/mL] | MIC (A. baumannii CDC-0045; CDC0045, read-out: MIC, A. baumannii CDC-0045) [µg/mL] | IC50 [1] [µM] | MIC (A. baumannii ATCC 19606; ATCC19606, read-out: MIC, A. baumannii ATCC 19606) [µg/mL] | MIC (P. aeruginosa ATCC 27853) [µg/mL] | EC50 (A. baumannii PBP2) [µM] | MIC (P. aeruginosa CDC-0110) [µg/mL] | MIC (A. baumannii CDC-0045; [3]) [µg/mL] | MIC (A. baumannii ATCC 19606; [4]) [µg/mL] | MIC [2] [µg/mL]
O=C(O)c1c(F)ccc2c1OB(O)[C@@H](NC(=O)C(NC(=O)N1CCN(C3CCN(C(=O)Nc4ccc(F)c(O)c4F)CC3)C1=O)c1cc(F)c(O)c(O)c1Cl)C2 (stereo partly drawn) [Example 452, (3R)-3-(2-(2-chloro-5-fluoro-3,4-dihydroxyphenyl)-2-(3-(1-((2,4-difluoro-3-hydroxyphenyl)carbamoyl)piperidin-4-yl)-2-oxoimidazolidine-1-carboxamido)acetamido)-7-fluoro-2-hydroxy-3,4-dihydro-2H-benzo[e][1,2]oxaborinine-8-carboxylic acid] | 2 to 4 (≈ 2.47 to 4.95 µM) | < 1 | < 10 | < 1 | 2 to 4 (≈ 2.47 to 4.95 µM) | < 10 | < 1 |  |  | 
O=C(O)c1c(F)ccc2c1OB(O)[C@@H](NC(=O)C(NC(=O)N1CCN(C3CCN(C(=O)Nc4cc(O)c(F)c(F)c4)CC3)C(=O)C1=O)c1cc(F)c(O)c(O)c1Cl)C2 (stereo partly drawn) [Example 488, (3R)-3-(2-(2-chloro-5-fluoro-3,4-dihydroxyphenyl)-2-(4-(1-((3,4-difluoro-5-hydroxyphenyl)carbamoyl)piperidin-4-yl)-2,3-dioxopiperazine-1-carboxamido)acetamido)-7-fluoro-2-hydroxy-3,4-dihydro-2H-benzo[e][1,2]oxaborinine-8-carboxylic acid] | 2 to 4 (≈ 2.39 to 4.78 µM) |  | < 10 |  | 2 to 4 (≈ 2.39 to 4.78 µM) | 10 to 50 |  | < 1 | < 1 | 8 to 16 (≈ 9.56 to 19.1 µM)
O=C(O)c1c(F)ccc2c1OB(O)[C@@H](NC(=O)C(NC(=O)N1CCN(C3CCN(C(=O)Nc4ccc(Cl)c(O)c4F)CC3)C(=O)C1=O)c1cc(F)c(O)c(O)c1Cl)C2 (stereo partly drawn) [Example 489, (3R)-3-(2-(4-(1-((4-chloro-2-fluoro-3-hydroxyphenyl)carbamoyl)piperidin-4-yl)-2,3-dioxopiperazine-1-carboxamido)-2-(2-chloro-5-fluoro-3,4-dihydroxyphenyl)acetamido)-7-fluoro-2-hydroxy-3,4-dihydro-2H-benzo[e][1,2]oxaborinine-8-carboxylic acid] | < 1 |  | < 10 |  | 2 to 4 (≈ 2.34 to 4.69 µM) | < 10 |  | < 1 | < 1 | 2 to 4 (≈ 2.34 to 4.69 µM)
O=C(O)c1c(F)ccc2c1OB(O)[C@@H](NC(=O)C(NC(=O)N1CCN(C3CCN(C(=O)Nc4cc(O)c(F)cc4Cl)CC3)C(=O)C1=O)c1cc(F)c(O)c(O)c1Cl)C2 (stereo partly drawn) [Example 490, (3R)-3-(2-(4-(1-((2-chloro-4-fluoro-5-hydroxyphenyl)carbamoyl)piperidin-4-yl)-2,3-dioxopiperazine-1-carboxamido)-2-(2-chloro-5-fluoro-3,4-dihydroxyphenyl)acetamido)-7-fluoro-2-hydroxy-3,4-dihydro-2H-benzo[e][1,2]oxaborinine-8-carboxylic acid] | 2 to 4 (≈ 2.34 to 4.69 µM) |  | < 10 |  | 2 to 4 (≈ 2.34 to 4.69 µM) | 10 to 50 |  | < 1 | < 1 | 32 to 64 (≈ 37.5 to 75 µM)
O=C(O)c1c(F)ccc2c1OB(O)[C@@H](NC(=O)[C@H](NC(=O)N1CCN(C3CCN(C(=O)Nc4cc(F)c(F)c(O)c4F)CC3)C(=O)C1=O)c1cc(F)c(O)c(O)c1Cl)C2 [Example 491, (R)-3-((R)-2-(2-chloro-5-fluoro-3,4-dihydroxyphenyl)-2-(2,3-dioxo-4-(1-((2,4,5-trifluoro-3-hydroxyphenyl)carbamoyl)piperidin-4-yl)piperazine-1-carboxamido)acetamido)-7-fluoro-2-hydroxy-3,4-dihydro-2H-benzo[e][1,2]oxaborinine-8-carboxylic acid] | 2 to 4 (≈ 2.34 to 4.68 µM) |  | < 10 |  | 2 to 4 (≈ 2.34 to 4.68 µM) | < 10 |  | < 1 | < 1 | 2 to 4 (≈ 2.34 to 4.68 µM)
O=C(O)c1c(F)ccc2c1OB(O)[C@@H](NC(=O)[C@H](NC(=O)N1CCN(C3CCN(Cc4cccnc4)CC3)C1=O)c1cc(F)c(O)c(O)c1Cl)C2 [Example 492, (R)-3-((R)-2-(2-chloro-5-fluoro-3,4-dihydroxyphenyl)-2-(2-oxo-3-(1-(pyridin-3-ylmethyl)piperidin-4-yl)imidazolidine-1-carboxamido)acetamido)-7-fluoro-2-hydroxy-3,4-dihydro-2H-benzo[e][1,2]oxaborinine-8-carboxylic acid] | 2 to 4 (≈ 2.74 to 5.49 µM) |  | < 10 |  | < 1 | 10 to 50 |  | < 1 | < 1 | < 1
O=C(O)c1c(F)ccc2c1OB(O)[C@@H](NC(=O)[C@H](NC(=O)N1CCN(C3CCN(Cc4ccncc4)CC3)C1=O)c1cc(F)c(O)c(O)c1Cl)C2 [Example 493, (R)-3-((R)-2-(2-chloro-5-fluoro-3,4-dihydroxyphenyl)-2-(2-oxo-3-(1-(pyridin-4-ylmethyl)piperidin-4-yl)imidazolidine-1-carboxamido)acetamido)-7-fluoro-2-hydroxy-3,4-dihydro-2H-benzo[e][1,2]oxaborinine-8-carboxylic acid] | < 1 |  | < 10 |  | 2 to 4 (≈ 2.74 to 5.49 µM) | 10 to 50 |  | < 1 | < 1 | < 1
